The assay has as its target DNA gyrase (Escherichia coli, UniProt P0AES4+P0AES6). As to the kind of experiment: Fluorescence Polarisation Assay: In a black, 384-well polystyrene assay plate, 30 microliters/well of 5 nM Escherichia coli DNA gyrase A/B tetramer and 130 micrograms/ml of topologically relaxed plasmid containing the triplex-forming sequence […] in an assay buffer consisting of 35 mM Tris-HCl (pH 7.5), 24 mM KCl, 4 mM MgCl2, 2 mM dithiothreitol, 1.8 mM spermidine, 5% (v/v) glycerol, 200 nM bovine serum albumin, 0.8% dimethylsulfoxide, and 0.3 mM ATP may be incubated at ambient temperature for (typically 30 minutes) in the absence or presence of 5-10 different concentrations of test compound. The supercoiling reactions may be quenched by the addition of 10 microliters/well of 40 nM oligodeoxynucleotide probe in 3x triplex-forming buffer consisting of 150 mM NaCl, and 150 mM sodium acetate at pH 3.5. The oligodeoxynucleotide probe may be 5x-BODIPY-FL-labeled […]. After 60 minutes, the fluorescence anisotropy of the BODIPY-FL may be measured in a Tecan Ultra plate reader, using 485 nM. It counts as protein-complex assay. (Polarisation of emitted light reports the rotation of a fluorescent probe.)
For orientation: IC50 means the concentration at which inhibition is half-maximal. Regarding `Cc1noc2c(Cl)c3c(nc12)CC1(C(=O)NC(=O)NC1=O)[C@H]1[C@H](C)O[C@H](C)CN31` (relative stereo), the IC50 was found to be 1800 nM. In the case of `C[C@@H]1CN2c3c(cc4c(Cl)noc4c3F)CC3(C(=O)NC(=O)NC3=O)[C@H]2[C@H](C)O1`, the IC50 was determined as 200 nM. For `C[C@@H]1CN2c3c(cc4c(C(N)=O)noc4c3F)CC3(C(=O)NC(=O)NC3=O)[C@H]2[C@H](C)O1` (relative stereo) the value was 1700 nM.
